Assays:
[1] = Multiple dose study: plasma pharmacokinetics and urinary excretion; assay type: in vivo, humans
Method: Multiple oral dose tolerability and the pharmacokinetics of several dosages of eplerenone were evaluated in a double-blind, randomized, placebo-controlled, rising oral dose, sequential panel study of 40 healthy male subjects (five groups of eight subjects). The study medication was administered in […] sequential dose panels, with each panel including eplerenone, spironolactone and placebo. […] The 100 mg and 200 mg dose capsules corresponded to those described in Examples 7 and 8, respectively. Following a 48-hour interval, the study drug was administered once a day for 11 days. Antialdosterone activity was determined following a fludrocortisone challenge on Days 12-13.

[2] = Effect of food study: plasma pharmacokinetics fasted vs high-fat breakfast; assay type: in vivo, humans; conditions: for Plasma Concentration: 100 mg eplerenone capsule
Method: An open-label randomized, cross-over study was employed to evaluate the pharmacokinetic profiles of eplerenone under fasted and fed conditions, and the safety and tolerability of eplerenone. Safety was assessed based on adverse events, vital signs and clinical laboratory tests. Twelve healthy male subjects were randomized to receive a single 100 mg dose of eplerenone on days 1 and 8 under (i) fasted conditions, or (ii) immediately following a high-fat breakfast. The subjects were orally administered (dosed) a single 100 mg dose of eplerenone in the form of the capsule described in Example 7, together with approximately 200 to 240 mL of water at 0800 hours on days 1 and 8. Subjects randomized to receive a high-fat breakfast were to completely ingest the meal within 20 minutes prior to dosing. The high-fat meal contained approximately 33 g protein, 75 g fat, 58 g carbohydrates and 1000 calories. […] All adverse events were mild in severity.

## COC(=O)C1CC2=CC(=O)CCC2(C)C23OC2CC2(C)C(CCC2(O)CCC(=O)O)C13 (stereo not shown) [Open Ring Lactone]
[1]; 100 mg to 1000 mg, single or multiple doses
  dose proportionality of plasma concentrations and dose-adjusted AUC: consistent with dose proportionality
[1]; once a day for 11 days
  accumulation: no significant or dose-related accumulation
[2]; 100 mg capsule, fed vs fasted
  effect of high-fat meal on AUC0-96: minimal or no measurable effect
  effect of high-fat meal on Cmax: reduction
  effect of high-fat meal on Tmax: increase
  effect of high-fat meal on T½: minimal or no measurable effect
[2]; Fasted Conditions, 0.5 hours after dosing
  Plasma Concentration: 69.163 ng/mL
[2]; Fasted Conditions, 1.0 hours after dosing
  Plasma Concentration: 91.208 ng/mL
[2]; Fasted Conditions, 2.0 hours after dosing
  Plasma Concentration: 70.600 ng/mL
[2]; Fasted Conditions, 3.0 hours after dosing
  Plasma Concentration: 58.833 ng/mL
[2]; Fasted Conditions, 4.0 hours after dosing
  Plasma Concentration: 45.042 ng/mL
[2]; Fasted Conditions, 6.0 hours after dosing
  Plasma Concentration: 31.773 ng/mL
[2]; Fasted Conditions, 8.0 hours after dosing
  Plasma Concentration: 18.708 ng/mL
[2]; Fasted Conditions, 28.0 hours after dosing
  Plasma Concentration: 0 ng/mL
[2]; Fasted Conditions, 48.0 hours after dosing
  Plasma Concentration: 0 ng/mL
[2]; Fasted Conditions, 72.0 hours after dosing
  Plasma Concentration: 0 ng/mL
[2]; Fasted Conditions, −0.5 hours after dosing
  Plasma Concentration: 0 ng/mL
[2]; High Fat Breakfast, 0.5 hours after dosing
  Plasma Concentration: 2.300 ng/mL
[2]; High Fat Breakfast, 1.0 hours after dosing
  Plasma Concentration: 17.392 ng/mL
[2]; High Fat Breakfast, 2.0 hours after dosing
  Plasma Concentration: 36.964 ng/mL
[2]; High Fat Breakfast, 3.0 hours after dosing
  Plasma Concentration: 56.742 ng/mL
[2]; High Fat Breakfast, 4.0 hours after dosing
  Plasma Concentration: 66.817 ng/mL
[2]; High Fat Breakfast, 6.0 hours after dosing
  Plasma Concentration: 51.675 ng/mL
[2]; High Fat Breakfast, 8.0 hours after dosing
  Plasma Concentration: 30.950 ng/mL
[2]; High Fat Breakfast, 28.0 hours after dosing
  Plasma Concentration: 0 ng/mL
[2]; High Fat Breakfast, 48.0 hours after dosing
  Plasma Concentration: 0 ng/mL
[2]; High Fat Breakfast, 72.0 hours after dosing
  Plasma Concentration: 0 ng/mL
[2]; High Fat Breakfast, −0.5 hours after dosing
  Plasma Concentration: 0 ng/mL

Source: patent publication US6410054B1, “Immediate release eplerenone compositions” (G. D. Searle & Co., priority 1998, dated 2002)
